From patent US11312702B2, “Substituted quinoline-8-carbonitrile derivatives having androgen receptor degradation activity and uses thereof” (ACCUTAR BIOTECHNOLOGY INC., priority 2019, dated 2022)
Residue numbers refer to the chain shown, from its start.

How the values were obtained:
Assay type in all cases: cell-based
[1] = test system: RAMOS cells; assay: Cell growth inhibition for Ramos cells (CellTiter-Glo); settings: Homo sapiens, 72 h; RAMOS cell line, 3 days after administration
Method: RAMOS cells (ATCC) were seeded in 96-well plates at 16,000 cell/well in 90 μl of RPMI growth medium containing 10% Heat-Inactivated Fetal Bovine Serum and 1% Penicillin/Streptomycin. The test compound was administered to the cells by using 10× compound stock solution prepared in growth medium at various concentrations. After administration of the compound, cells were then incubated at 37° C. for 3 days. Before CellTiter-Glo assay, the plates were equilibrated at room temperature for approximately 10 minutes. 100 ul of CellTiter-Glo® Reagent (Promega) was added to each well. The plates were then incubated at room temperature for 10 minutes and luminescence was recorded by EnSpire plate reader (PerkinElmer).
(§1) Table 4 summarizes the androgen receptor (AR) degradative activity and cell growth inhibition of exemplary compounds in (a) LNCAP, VCAP, and 22Rv1 cell lines 24 hours after administration of the compound; (b) RAMOS cell line 3 days after administration of the compound; and (c) VCAP cell line 6 days after administration of the compound. DC50: compound concentration needed for 50% target protein degradation.

[2] = target: T1, androgen receptor (AR) (Homo sapiens, UniProt P10275, T878A); assay: AR degradation activity in LNCAP cells (Western blot); settings: LNCAP cell line, 24 hours after administration; DC50 = concentration for 50% target protein degradation
T1 construct: endogenous in cells; host or cells: LNCAP
T1 sequence (P10275 1-920 T878A): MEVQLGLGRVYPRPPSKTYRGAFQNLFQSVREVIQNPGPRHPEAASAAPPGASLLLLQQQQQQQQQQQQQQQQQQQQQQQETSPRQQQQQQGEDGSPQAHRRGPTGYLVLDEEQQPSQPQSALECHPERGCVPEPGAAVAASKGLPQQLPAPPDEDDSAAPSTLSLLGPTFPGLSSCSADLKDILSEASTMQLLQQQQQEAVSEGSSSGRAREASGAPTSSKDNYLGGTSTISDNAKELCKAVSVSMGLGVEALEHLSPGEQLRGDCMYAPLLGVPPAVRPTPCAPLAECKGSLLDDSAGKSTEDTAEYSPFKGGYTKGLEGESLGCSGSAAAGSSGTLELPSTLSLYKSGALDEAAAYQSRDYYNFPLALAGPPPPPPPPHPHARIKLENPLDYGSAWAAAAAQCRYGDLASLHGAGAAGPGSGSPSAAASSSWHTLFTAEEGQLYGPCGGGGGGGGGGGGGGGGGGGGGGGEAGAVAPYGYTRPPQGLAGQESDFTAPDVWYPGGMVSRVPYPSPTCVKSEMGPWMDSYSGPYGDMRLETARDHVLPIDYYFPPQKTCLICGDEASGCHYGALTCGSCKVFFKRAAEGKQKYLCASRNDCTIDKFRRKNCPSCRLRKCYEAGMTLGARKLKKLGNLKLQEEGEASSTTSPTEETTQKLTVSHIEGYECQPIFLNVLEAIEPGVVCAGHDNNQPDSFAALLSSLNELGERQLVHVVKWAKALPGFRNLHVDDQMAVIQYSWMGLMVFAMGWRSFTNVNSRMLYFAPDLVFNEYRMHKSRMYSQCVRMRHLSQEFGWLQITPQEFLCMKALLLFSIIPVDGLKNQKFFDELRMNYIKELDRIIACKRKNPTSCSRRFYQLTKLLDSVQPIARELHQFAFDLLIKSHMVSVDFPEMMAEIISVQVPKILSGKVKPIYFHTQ
Method: (§2) LNCAP, VCAP and 22Rv1 cells were plated in 24-well plates at 1.5×10E5 cells/well in the RPMI growth medium containing 10% FBS and 1% Penicillin Streptomycin, and then incubated at 37° C. overnight. The following day, the test compound was administered to the cells by using 1000× compound stock solution prepared in DMSO at various concentrations. After administration of the compound, the cells were then incubated at 37° C. for 24 hours. Upon completion, the cells were washed with PBS and protein was collected in Laemmli sample buffer (1×; VWR International). Proteins in cell lysate were separated by SDS-PAGE and transferred to Odyssey nitrocellulose membranes (Licor) with iblot® dry blotting transfer system (ThermoFisher). Nonspecific binding was blocked by incubating membranes with Intercept Blocking Buffer (Licor) for 1 hour at room temperature with gentle shaking. The membranes were then incubated overnight at 4° C. with Primary antibodies rabbit anti-AR (1:1,000, Cell Signaling, 5153) and mouse anti-GAPDH (1:5,000, Santa Cruz Biotechnology, sc-47724) diluted in Intercept Blocking Buffer containing 0.1% Tween 20. After washing 3 times with TBS-T, the membranes were incubated with IRDye® […] goat anti-mouse IgG (1:20,000, Licor) or IRDye®8000W goat anti-rabbit IgG (1:20,000, Licor) for 1 hour. After TBS-T washes, membranes were rinsed in TBS and scanned on Odyssey® CLx Imaging System (Licor). The bands were quantified using Image Studio™ Software (Licor).
as §1

[3] = test system: androgen receptor (AR); assay: AR degradation activity in 22Rv1 cells (Western blot); settings: 22Rv1 cell line, 24 hours after administration; DC50 = concentration for 50% target protein degradation
Method: as §2, §1

[4] = test system: VCAP cells; assay: Cell growth inhibition for VCAP cells (CellTiter-Glo); settings: Homo sapiens, 144 h; VCAP cell line, 6 days after administration, 0.1 nM R1881, charcoal-stripped FBS
Method: VCAP cells (ATCC) were seeded in 96-well plates at 3000 cell/well in 80 μl of DMEM growth medium containing 10% charcoal-stripped FBS (CSS) and 1% Penicillin/Streptomycin. Cells were incubated at 37° C. overnight. The following day, the test compound was administered to the cells by using 10× compound stock solution prepared in growth medium at various concentrations. Four hours later, 0.1 nM R1881 (Sigma) was administered to the cells by using 10× compound stock solution prepared in growth medium. 0.1% DMSO with or without 0.1 nM R1881 was administered as control. Cells were then incubated at 37° C. for 6 days. Before CelTiter-Glo assay, the plates were equilibrated at room temperature for approximately 10 minutes. 100 ul of CellTiter-Glo® Reagent (Promega) was added to each well. The plates were then incubated at room temperature for 10 minutes and luminescence was recorded by EnSpire plate reader (PerkinElmer).
as §1

[5] = target: T2, androgen receptor (AR) (Homo sapiens, UniProt P10275); assay: AR degradation activity in VCAP cells (Western blot); settings: VCAP cell line, 24 hours after administration; DC50 = concentration for 50% target protein degradation
T2 construct: endogenous in cells; host or cells: VCAP
T2 sequence (P10275 1-920): T1 sequence (P10275 1-920 T878A) with A878T
Method: as §2, §1

| SMILES | GI50 [1] | DC50 [2] | DC50 [3] | GI50 [4] | DC50 [5] |
| --- | --- | --- | --- | --- | --- |
| CC1(C)[C@H](NC(=O)c2ccc(N3CCC(CN4CCN(c5ccc6c(c5)CN([C@H]5CCC(=O)NC5=O)C6=O)CC4)CC3)cc2)C(C)(C)[C@H]1Oc1ccc(C#N)c2ncccc12 [Compound 2-49, N-((1,3-trans)-3-((8-cyanoquinolin-5-yl)oxy)-2,2,4,4-tetramethylcyclobutyl)-4-(4-((4-(2-((S)-2,6-dioxopiperidin-3-yl)-1-oxoisoindolin-5-yl)piperazin-1-yl)methyl)piperidin-1-yl)benzamide] | > 3000 nM | 0.4 nM | 0.4 nM | 8.2 nM | 0.4 nM |
| CC1(C)C(NC(=O)c2ccc(N3CCC(CN4CCN(c5ccc6c(c5)CN([C@H]5CCC(=O)NC5=O)C6=O)CC4)CC3)nc2)C(C)(C)C1Oc1ccc(C#N)c2ncccc12 (some centres unmarked) [Compound 2-29] | > 3000 nM | 0.1 nM | 0.13 nM | 2.1 nM |  |
| CC1(C)C(NC(=O)c2ccc(N3CCC(CN4CCN(c5ccc6c(c5)CN([C@H]5CCC(=O)NC5=O)C6=O)CC4)CC3)c(F)c2)C(C)(C)C1Oc1ccc(C#N)c2ncccc12 (some centres unmarked) [Compound 2-32] | > 3000 nM | 0.1 nM | 0.25 nM | 5.7 nM | 0.3 nM |
| CC1(C)C(NC(=O)c2ccc(N3CCC(CCN4CCN(c5ccc6c(c5)C(=O)N(C5CCC(=O)NC5=O)C6=O)CC4)CC3)cc2)C(C)(C)C1Oc1ccc(C#N)c2ncccc12 (stereo not drawn) [Compound 2-43, N-(1,3-trans)-3-((8-cyanoquinolin-5-yl)oxy)-2,2,4,4-tetramethylcyclobutyl)-4-(4-(2-(4-(2-(2,6-dioxopiperidin-3-yl)-1,3-dioxoisoindolin-5-yl)piperazin-1-yl)ethyl)piperidin-1-yl)benzamide] | > 3000 nM | 2 nM |  | 31.2 nM | 1.8 nM |
| CC1(C)[C@H](NC(=O)c2ccc(N3CCC(CN4CCN(c5ccc6c(c5)C(=O)N(C5CCC(=O)NC5=O)C6=O)CC4)CC3)c(F)c2)C(C)(C)[C@H]1Oc1ccc(C#N)c2ncccc12 (some centres unmarked) [Compound 2-22] |  | 1 nM | 2.8 nM | 8 nM | 1.7 nM |
| CC1(C)[C@H](NC(=O)c2ccc(N3CCC(CN4CCN(c5ccc6c(c5)C(=O)N(C5CCC(=O)NC5=O)C6=O)CC4)CC3)nn2)C(C)(C)[C@H]1Oc1ccc(C#N)c2ncccc12 (some centres unmarked) [Compound 2-19] |  | 0.5 nM |  |  | 1 nM |
| CC1(C)C(NC(=O)c2cnc(N3CCC(CN4CCN(c5ccc6c(c5)C(=O)N(C5CCC(=O)NC5=O)C6=O)CC4)CC3)nc2)C(C)(C)C1Oc1ccc(C#N)c2ncccc12 (stereo not drawn) [Compound 2-18, N-(1,3-trans)-3-((8-cyanoquinolin-5-yl)oxy)-2,2,4,4-tetramethylcyclobutyl)-2-(4-((4-(2-(2,6-dioxopiperidin-3-yl)-1,3-dioxoisoindolin-5-yl)piperazin-1-yl)methyl)piperidin-1-yl)pyrimidine-5-carboxamide] |  | 0.4 nM |  |  | 0.4 nM |
| CC1(C)C(NC(=O)c2ccc(N3CCC(CN4CCN(c5ccc6c(c5)C(=O)N(C5CCC(=O)NC5=O)C6=O)CC4)CC3)nc2)C(C)(C)C1Oc1ccc(C#N)c2ncccc12 (stereo not drawn) [Compound 2-13, N-(1,3-trans)-3-((8-cyanoquinolin-5-yl)oxy)-2,2,4,4-tetramethylcyclobutyl)-6-(4-((4-(2-(2,6-dioxopiperidin-3-yl)-1,3-dioxoisoindolin-5-yl)piperazin-1-yl)methyl)piperidin-1-yl)nicotinamide] | > 3000 nM | 0.7 nM |  | 47.6 nM | 0.7 nM |
| CC1(C)C(NC(=O)c2ccc(N3CCC(CN4CCN(c5ccc6c(c5)C(=O)N(C5CCC(=O)NC5=O)C6=O)CC4)CC3)cc2)C(C)(C)C1Oc1ccc(C#N)c2ncccc12 (stereo not drawn) [Compound 2-21, N-(1,3-trans)-3-((8-cyanoquinolin-5-yl)oxy)-2,2,4,4-tetramethylcyclobutyl)-4-(4-((4-(2-(2,6-dioxopiperidin-3-yl)-1,3-dioxoisoindolin-5-yl)piperazin-1-yl)methyl)piperidin-1-yl)benzamide] | > 3000 nM | 2.2 nM | 0.9 nM | 18 nM | 1.2 nM |
